Square brackets hold non-standard residues; d marks the D form. Peptide text beside a SMILES is read from it.
Columns and labels:
[1] = test system: endotoxins-induced uveitis albino rat model; assay: Endotoxins-induced uveitis (EIU), single intravenous injection, clinical scoring; assay type: in vivo; design: key to clinical score (mean±SEM) / clinical score, median: clinical ocular inflammation score per eye, 0 to 4; settings: 24 h after LPS
Protocol: The anti-inflammatory potency of the JNK inhibitor of SEQ ID NO: 172 was tested in albino rats following intravenous administration (EIU/LPS model). The aim of this study was to determine the effects of single intravenous injections of SEQ ID NO: 172 (0.015, 0.18, and 1.80 mg/kg) on the inflammatory response in an endotoxins-induced uveitis albino rat model and to compare these affects to those obtained with prior art JNK inhibitor of SEQ ID NO: 197 (2 mg/kg). As a further control served phosphate sodic dexamethasone (“reference”) and vehicle (0.9% NaCl).
Sixty (60) male Lewis rats were randomly divided into six (6) groups often (10) animals each. 0.9% NaCl (vehicle, “control”), SEQ ID NO: 197 at 2 mg/kg and SEQ ID NO: 172 at three concentrations (1.80 mg/kg, 0.18 mg/kg and 0.015 mg/kg) were administered by intravenous injection just before EIU induction (on the day of induction). Accordingly, phosphate sodic dexamethasone (20 Dg/eye, 5 μl; “reference”) was administered by a single sub-conjunctival injection in both eyes just before EIU induction (on the day of induction). EIU was induced by footpad injection of lipopolysaccharide (LPS, 1 mg/kg). 24 hours after LPS injection, inflammatory response was evaluated by clinical scoring.
The intensity of clinical ocular inflammation was scored on a scale from 0 to 4 for each eye: […]

[2] = test system: mouse model of scopolamine-induced dry eye; assay: Scopolamine-induced dry eye, topical ocular TID 21 days (TBUT, PRTT, histopathology); assay type: in vivo; settings: for Mean PRTT AUC: Day 7-21, in mm·day (unit assumed); for Mean Calculated TBUT AUC: Day 7 to Day 21, in s·day (unit assumed)
Protocol: The objective of this study was to assess the effects of two different compounds, the all-D-retro-inverso JNK-inhibitor (poly-)peptide of SEQ ID NO: 197 and the JNK inhibitor (poly-)peptide of SEQ ID NO: 172, at three dose levels in a mouse model of scopolamine-induced dry eye.
The peptides of SEQ ID NO: 197 and SEQ ID NO: 172 were tested for efficacy in this murine model of dry eye. The peptides were both tested at a low, medium and a high dose. […] The vehicle, which also served as the negative control, was 0.9% Sodium Chloride for Injection USP.
The study consisted of a total of 9 groups of female C57BL/6 mice, comprising 8 groups of 12 mice each and an additional group of 4 mice. Bilateral short-term dry eye was induced by a combination of scopolamine hydrobromide (Sigma-Aldrich Corp., St. Louis, Mo.) injection (subcutaneous (SC), four times daily, 0.5 mg/dose, Days 0-21) and by exposing mice to the drying environment of constant air draft. […] Mice of Group 9 were maintained as un-induced, (no dry eye) untreated controls.
During the in-life (treatment) period, clinical observations were recorded once daily; slit-lamp examination (SLE) with corneal fluorescein staining, tear break-up time test (TBUT), and phenol red thread test (PRTT) were performed three times per week. Necropsies were performed on Day 22; eyes, eye lids, conjunctivae, and lacrimal glands were collected from both eyes of each animal. Tissues from the right eyes (oculus dexter, OD) were fixed and then evaluated microscopically. Tissues from the left eyes (oculus sinister; OS) were flash-frozen in liquid nitrogen and stored frozen at −80° C. for possible subsequent analyses.
The TBUT test was conducted three times weekly by measuring the time elapsed in seconds between a complete blink after application of fluorescein to the cornea and the appearance of the first random dry spot in the tear film. […] At least ninety seconds later, corneal epithelial damage was graded using a slit-lamp with a cobalt blue filter after another drop of 0.1% fluorescein was reapplied to the cornea; the cornea then was scored per the Draize ocular scale.
Tear production was measured three times a week in both eyes using PRTT test strips (Zone-Quick; Menicon, Nagoya, Japan). Prior to the first treatment of the day, a thread was applied to the lateral canthus of the conjunctival fornix of each eye for 30 seconds under slit-lamp biomicroscopy. Tear migration up the tread (i.e., the length of the wetted cotton thread) was measured using a millimeter scale.
At necropsy on Day 22, both eyes from each animal, including the globes, lacrimal glands, eyelids, and conjunctivae, were excised. The right eye and associated tissues were fixed by overnight submersion in modified Davidson's solution followed by transfer to 10% neutral buffered formalin (NBF). The fixed tissues of the right eye were dehydrated, embedded in paraffin, sectioned at 3 to 5-μm thicknesses, and slide-mounted tissues were stained with hematoxylin and eosin (H & E). Stained slides were evaluated via light microscopy. Detailed and complete histopathologic assessment was conducted on all parts of the eye, with at least two section levels being examined histopathologically for each right eye. Special attention was paid to the cornea, epithelia (including goblet cells) of the conjunctiva and cornea, as well as the lacrimal gland. These tissues were scored for injury based upon a 0-4 scale, with 0 being normal, 1 being minimal, 2 being mild, 3 being moderate, and 4 being severe. For each cornea, scores were based on corneal epithelium thickness, and corneal inflammation.

CC(C)C[C@H](NC(=O)[C@H](CC(N)=O)NC(=O)[C@H](CC(C)C)NC(=O)[C@@H](NC(=O)[C@@H](C)NC(=O)[C@@H]1CCCN1C(=O)[C@H](CCCNC(=N)N)NC(=O)[C@@H](CCCCN)NC(=O)[C@@H]1CCCN1C(=O)[C@H](CCCNC(=N)N)NC(=O)[C@@H](CCCNC(=N)N)NC(=O)[C@H](CCCNC(=N)N)NC(=O)[C@H](CCCNC(=N)N)NC(=O)[C@H](CCC(N)=O)NC(=O)[C@@H](CCCNC(=N)N)NC(=O)[C@H](CCCNC(=N)N)NC(=O)[C@H](CCCCN)NC(=O)[C@H](CCCCN)NC(=O)[C@H](N)CCCNC(=N)N)[C@@H](C)O)C(=O)N[C@H](Cc1ccccc1)C(N)=O [SEQ ID NO: 172, rKKRrQRRrRPkRPaTLNLf] (H-[dR]KKR[dR]QRR[dR]RP[dK]RP[dA]TLNL[dF]-NH2; N-terminus assumed)
clinical score (mean±SEM) ([1]; 0.015 mg/kg i.v.): 2.3±0.3 | clinical score, median ([1]; 0.015 mg/kg i.v.): 2 | reduction of inflammation vs vehicle ([1]; 0.015 mg/kg i.v.): 36% | clinical score (mean±SEM) ([1]; 0.18 mg/kg i.v.): 2.4±0.3 | clinical score, median ([1]; 0.18 mg/kg i.v.): 2 | reduction of inflammation vs vehicle ([1]; 0.18 mg/kg i.v.): 33% | clinical score (mean±SEM) ([1]; 1.80 mg/kg i.v.): 2.1±0.3 | clinical score, median ([1]; 1.80 mg/kg i.v.): 2 | reduction of severity of ocular inflammation vs vehicle ([1]; 1.80 mg/kg i.v.): 42% | TBUT mean nadir (Day 7) ([2]; 0.05% TID OU): 6.6 ± 0.4 s | TBUT mean peak (Day 9) ([2]; 0.05% TID OU): 8.0 ± 0.4 s | Mean PRTT AUC ([2]; 0.05% TID OU): 44.38 | Mean Calculated TBUT AUC ([2]; 0.05% TID OU): 102.98 | TBUT mean nadir (Day 7) ([2]; 0.2% TID OU): 6.7 ± 0.4 s | TBUT mean peak (Day 9) ([2]; 0.2% TID OU): 10.0 ± 0.7 s | histological cornea scores compared to cyclosporine group ([2]; 0.2% TID OU): not significantly different than the cyclosporine group scores | Mean PRTT AUC ([2]; 0.2% TID OU): 44.85 | Mean Calculated TBUT AUC ([2]; 0.2% TID OU): 119.08 | TBUT mean nadir (Day 7) ([2]; 0.6% TID OU): 6.7 ± 0.3 s | TBUT mean peak (Day 9) ([2]; 0.6% TID OU): 9.9 ± 0.8 s | histological cornea scores compared to cyclosporine group ([2]; 0.6% TID OU): not significantly different than the cyclosporine group scores | Mean PRTT AUC ([2]; 0.6% TID OU): 46.10 | Mean Calculated TBUT AUC ([2]; 0.6% TID OU): 119.31 | TBUT AUC compared with vehicle control ([2]; SEQ ID NO: 172 0.05%, 0.2% and 0.6%, cyclosporine 0.05%, Kruskal-Wallis): significant increases in the TBUT AUC | PRTT, aqueous tear production ([2]; low, mid and high dose levels): produced significantly more aqueous tears compared to vehicle-treated animals

CC(C)C[C@@H](NC(=O)[C@@H](Cc1ccccc1)NC(=O)[C@H]1CCCN1C(=O)[C@@H](CCC(N)=O)NC(=O)[C@H](NC(=O)[C@H]1CCCN1C(=O)[C@@H](CCCNC(=N)N)NC(=O)[C@@H](CO)NC(=O)[C@@H](CCC(N)=O)NC(=O)[C@H](N)CC(=O)O)C(C)C)C(=O)N[C@H](CC(N)=O)C(=O)N[C@H](CC(C)C)C(=O)N[C@@H](C(=O)N[C@@H](C(=O)N1CCC[C@@H]1C(=O)N[C@H](CCCNC(=N)N)C(=O)N[C@H](CCCCN)C(=O)N1CCC[C@@H]1C(=O)N[C@H](CCCNC(=N)N)C(=O)N1CCC[C@@H]1C(=O)N1CCC[C@@H]1C(=O)N[C@H](CCCNC(=N)N)C(=O)N[C@H](CCCNC(=N)N)C(=O)N[C@H](CCCNC(=N)N)C(=O)N[C@H](CCC(N)=O)C(=O)N[C@H](CCCNC(=N)N)C(=O)N[C@H](CCCNC(=N)N)C(=O)N[C@H](CCCCN)C(=O)N[C@H](CCCCN)C(=O)N[C@H](CCCNC(=N)N)C(=O)NCC(N)=O)[C@H](C)O)[C@H](C)O [SEQ ID NO: 197, dqsrpvqpflnlttprkprpprrrqrrkkrg, reference compound] (H-[dD][dQ][dS][dR][dP][dV][dQ][dP][dF][dL][dN][dL][dT][dT][dP][dR][dK][dP][dR][dP][dP][dR][dR][dR][dQ][dR][dR][dK][dK][dR]G-NH2)
clinical score (mean±SEM) ([1]; 2 mg/kg i.v.): 2.2±0.3 | clinical score, median ([1]; 2 mg/kg i.v.): 2 | decrease of EIU scores vs vehicle group ([1]; 2 mg/kg i.v.): 40% | corneal changes in comparison to other treatment groups ([2]; 0.06% TID OU): slightly more severe | Mean PRTT AUC ([2]; 0.06% TID OU): 39.96 | Mean Calculated TBUT AUC ([2]; 0.06% TID OU): 88.54 | Mean PRTT AUC ([2]; 0.25% TID OU): 42.79 | Mean Calculated TBUT AUC ([2]; 0.25% TID OU): 91.19 | histological cornea scores compared to cyclosporine group ([2]; 0.6% TID OU): not significantly different than the cyclosporine group scores | Mean PRTT AUC ([2]; 0.6% TID OU): 43.17 | Mean Calculated TBUT AUC ([2]; 0.6% TID OU): 89.98 | PRTT, aqueous tear production ([2]; low, mid and high dose levels): generally dose-dependent increases in PRTT | TBUT ([2]; low, mid and high dose levels): slight generally dose-dependent increases in TBUT

From patent US11331364B2, “Use for JNK inhibitor molecules for treatment of various diseases” (Xigen Inflammation Ltd., priority 2014, dated 2022)
